Assay results as given in ChEMBL document CHEMBL3886740, “Heterocyclic compounds and uses thereof in the treatment of sexual disorders” (2016).

Molecular target: T1, D(4) dopamine receptor (Homo sapiens, UniProt P21917)
T1 sequence (P21917 whole entry): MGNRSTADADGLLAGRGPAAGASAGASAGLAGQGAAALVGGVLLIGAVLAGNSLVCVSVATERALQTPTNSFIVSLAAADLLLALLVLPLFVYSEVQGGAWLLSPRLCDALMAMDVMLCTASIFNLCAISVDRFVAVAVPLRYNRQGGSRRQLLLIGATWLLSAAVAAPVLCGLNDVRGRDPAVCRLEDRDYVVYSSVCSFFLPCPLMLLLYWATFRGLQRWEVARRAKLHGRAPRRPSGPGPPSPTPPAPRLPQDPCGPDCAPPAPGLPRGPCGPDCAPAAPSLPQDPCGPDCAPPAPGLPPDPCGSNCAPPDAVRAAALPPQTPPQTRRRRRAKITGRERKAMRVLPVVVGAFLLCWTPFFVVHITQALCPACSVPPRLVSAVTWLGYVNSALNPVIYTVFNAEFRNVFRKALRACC
Assay: Receptor Binding Assay: Determination of binding to D4.4 receptor was performed using [3H]-YM-09151-2 (70-87 Ci/mmol, 0.3 nM), as a radioligand, in the presence of various concentrations of the tested compound. Reactions were carried out in 50 mM TRIS-HCl (pH 7.4) containing 5 mM MgCl2, 5 mM EDTA, 5 mM KCl and 1.5 mM CaCl2, for 60 minutes at 22° C. The reaction was terminated by rapid vacuum filtration onto glass fiber filters.

IC50: 10 µM
Structure (SMILES): O=c1[nH]c(CN2CCN(c3ccccc3O)CC2)nc2ccccc12
